Results as given in patent US7691416B2, “Methods of treating vascular disease” (priority 2002, dated 2010).

Test system: intimal hyperplasia after balloon injury of the carotid artery
Assay: Balloon injury model of the carotid artery
Format: in vivo, rat
Conditions: CO 250 ppm for one hour prior to balloon injury; 14 days after injury; n=8-10
Description: Animals. Male (250-350 g) Brown Norway rats (RT1^n) were used as aortic graft donors and male (250-350 g) Lewis rats (RT11) as recipients. Dawley (400-450 g) rats were used in the balloon injury model. Adult male C57BL/6, C57/S129, p21^−/− and p53^−/− null mice were purchased from Jackson Laboratory (Bar Harbor, Me.). mkk3^(−/−) null mice were generated as described Lu et al. (EMBO. 18:1845-1857 (1999)). The inos^−/− and enos^−/− mice were bred at the University of Pittsburgh. Aortic transplant model. Aortic transplantation was performed as described in Shimizu et al. (Nat. Med. 7:738-741 (2001)). Briefly, 3 to 4 cm of descending aorta was harvested from the donor and implanted between the renal arteries and the aortic bifurcation of the recipient. Both edges of the native abdominal aorta were ligated. Balloon injury model. Balloon angioplasty was carried out as described in Murakami et al. (Atherosclerosis 157:361-368 (2001)). […] [^3H]thymidine incorporation was measured by scintillation spectroscopy and presented as mean counts/min/well. […] Areas from eight to ten captured images were calculated using digital imaging software as number of pixels corresponding to those areas. Twenty-four to forty-eight sections from each group were statistically analyzed with SPSS software version 10. […]

In the case of `[C-]#[O+]` [CO, carbon monoxide], the “Intimal hyperplasia, suppression compared to control animals exposed to air” value is reported as 74±8%.
